Experimental findings from patent EP0908457B1, “3-(1,2-benzisothiazol- and isoxazol-5-Y1)-2,4(1H,3H)-pyrimidinedione or thione and 3-(1,2-benzisothiazol- and isoxazol-5-y1)-4(3H)-pyrimidinone or thione herbicidal agents” (BASF AKTIENGESELLSCHAFT, priority 1997, dated 1999) are described below.

What all share (format): in vivo
In assay [1] the test system is Cyperus serotinus, Rottb. The assay is described as follows: Preemergence weed control under flooded paddy conditions, CYPSE (Flatsedge). Particulars: preemergence, rated three to four weeks after treatment.
The next assay concerns Cyperus iria. The assay is described as follows: Preemergence weed control under flooded paddy conditions, CYPIR (Rice Flatsedge). As to conditions: preemergence, flooded paddy, rated three to four weeks after treatment.
The test system of assay [2] is Echinochloa oryzoides (Ard.) Fritsch. The assay is described as follows: Preemergence weed control under flooded paddy conditions, ECHORC (Watergrass (Calif.)). Particulars: preemergence, flooded paddy, rated three to four weeks after treatment.
For assay [3], the system named is Monochoria vaginalis, Presl. Description: Preemergence weed control under flooded paddy conditions, MOOVA (Monochoria). Particulars: preemergence, flooded paddy, rated three to four weeks after treatment.
Another assay has as its system Sagittaria pygmaea, L. Description: Preemergence weed control under flooded paddy conditions, SAGPY (Arrowhead (Pygmaea)). As to conditions: preemergence, flooded paddy, rated three to four weeks after treatment.
Also: meaning of each grade not given here.

Turning to `Cn1c(C(F)(F)F)cc(=O)n(-c2ccc3snc(C[S+]([O-])c4ccccc4)c3c2)c1=O` (stereo not drawn) [Example 394, 2,4(1H,3H)-Pyrimidinedione, 1-methyl-3-{3-[(phenylsulfinyl)methyl]-1,2-benzisothiazol-5-yl}-6-(trifluoromethyl)-], the “herbicidal effect rating, CYPSE” value in assay [1] (Rate 0.0320 kg/ha) is reported as 0.0; in assay [1] (Rate 0.0620 kg/ha) it was 0.0; in assay [1] (Rate 0.1250 kg/ha), 0.0; in assay [1] (Rate 0.2500 kg/ha) it was 2.0. In addition, the “herbicidal effect rating, CYPIR” value amounted to 0.0 in the assay on Cyperus iria (Rate 0.0320 kg/ha), 3.0 in the assay with Cyperus iria (Rate 0.0620 kg/ha), 5.0 in the assay with Cyperus iria (Rate 0.1250 kg/ha) and 7.0 in the assay with Cyperus iria (Rate 0.2500 kg/ha). In addition, the “herbicidal effect rating, ECHORC” value in assay [2] (Rate 0.0320 kg/ha) was determined as 0.0; in assay [2] (Rate 0.0620 kg/ha), 0.0; in assay [2] (Rate 0.1250 kg/ha), 4.0; in assay [2] (Rate 0.2500 kg/ha) it was 6.0. Besides, the “herbicidal effect rating, MOOVA” value in assay [3] (Rate 0.0320 kg/ha) came to 8.0; in assay [3] (Rate 0.0620 kg/ha), 8.0; in assay [3] (Rate 0.1250 kg/ha), 9.0; in assay [3] (Rate 0.2500 kg/ha), 9.0. In addition, the “herbicidal effect rating, SAGPY” value in the assay on Sagittaria pygmaea, L. (Rate 0.0620 kg/ha) worked out at 0.0; in the assay with Sagittaria pygmaea, L. (Rate 0.1250 kg/ha) it was 0.0; in the assay with Sagittaria pygmaea, L. (Rate 0.2500 kg/ha), 0.0.
For `CCC(C)S(=O)(=O)NC(=O)c1nsc2ccc(-n3c(=O)cc(C(F)(F)F)n(C)c3=O)cc12` (stereo not drawn) [Example 395, 1,2-Benzisothiazole-3-carboxamide, 5-[3,6-dihydro-3-methyl-2,6-dioxo-4-(trifluoromethyl)-1(2H)-pyrimidinyl]-N-[(1-methylpropyl)sulfonyl]-], the “herbicidal effect rating, CYPSE” value in assay [1] (Rate 0.0320 kg/ha), in assay [1] (Rate 0.0620 kg/ha), in assay [1] (Rate 0.1250 kg/ha) and in assay [1] (Rate 0.2500 kg/ha) was 0.0 in each case. Also, the “herbicidal effect rating, CYPIR” value in the assay on Cyperus iria (Rate 0.0320 kg/ha) is recorded as 0.0; with Cyperus iria (Rate 0.0620 kg/ha), 0.0; in the assay with Cyperus iria (Rate 0.1250 kg/ha), 0.0; in the assay on Cyperus iria (Rate 0.2500 kg/ha), 3.0. The “herbicidal effect rating, ECHORC” value in assay [2] (Rate 0.0320 kg/ha) was 0.0; in assay [2] (Rate 0.0620 kg/ha), 0.0; in assay [2] (Rate 0.1250 kg/ha), 2.0; in assay [2] (Rate 0.2500 kg/ha), 3.0. Further, the “herbicidal effect rating, MOOVA” value in assay [3] (Rate 0.0320 kg/ha), in assay [3] (Rate 0.0620 kg/ha), in assay [3] (Rate 0.1250 kg/ha) and in assay [3] (Rate 0.2500 kg/ha) was 9.0 throughout. The “herbicidal effect rating, SAGPY” value with Sagittaria pygmaea, L. (Rate 0.0320 kg/ha) is 0.0; in the assay with Sagittaria pygmaea, L. (Rate 0.0620 kg/ha), 2.0; in the assay on Sagittaria pygmaea, L. (Rate 0.1250 kg/ha), 4.0; in the assay on Sagittaria pygmaea, L. (Rate 0.2500 kg/ha), 5.0.
As for `Cn1c(C(F)(F)F)cc(=O)n(-c2ccc3snc(C(C)(C)C(=O)OCc4ccccc4)c3c2)c1=O` [Example 396, 1,2-Benzisothiazole-3-acetic acid, 5-[3,6-dihydro-3-methyl-2,6-dioxo-4-(trifluoromethyl)-1(2H)-pyrimidinyl]-alpha,alpha-dimethyl-, benzyl ester], the “herbicidal effect rating, CYPSE” value in assay [1] (Rate 0.0320 kg/ha) amounted to 0.0; in assay [1] (Rate 0.0620 kg/ha), 0.0; in assay [1] (Rate 0.1250 kg/ha), 0.0; in assay [1] (Rate 0.2500 kg/ha), 6.0. For the same compound, the “herbicidal effect rating, CYPIR” value in the assay on Cyperus iria (Rate 0.0320 kg/ha) was 7.0; in the assay on Cyperus iria (Rate 0.0620 kg/ha), 8.0; with Cyperus iria (Rate 0.1250 kg/ha) it was 9.0; with Cyperus iria (Rate 0.2500 kg/ha) it was 9.0. Also, the “herbicidal effect rating, ECHORC” value in assay [2] (Rate 0.0320 kg/ha), in assay [2] (Rate 0.0620 kg/ha), in assay [2] (Rate 0.1250 kg/ha) and in assay [2] (Rate 0.2500 kg/ha) was 9.0 in each case. Besides, the “herbicidal effect rating, MOOVA” value in assay [3] (Rate 0.0320 kg/ha), in assay [3] (Rate 0.0620 kg/ha), in assay [3] (Rate 0.1250 kg/ha) and in assay [3] (Rate 0.2500 kg/ha) was 9.0 throughout. The “herbicidal effect rating, SAGPY” value in the assay with Sagittaria pygmaea, L. (Rate 0.0320 kg/ha) is 7.0; in the assay on Sagittaria pygmaea, L. (Rate 0.0620 kg/ha), 7.0; in the assay with Sagittaria pygmaea, L. (Rate 0.1250 kg/ha), 8.0; in the assay on Sagittaria pygmaea, L. (Rate 0.2500 kg/ha) it was 8.0.
With `COc1ccc(COC(=O)C(C)(C)c2nsc3ccc(-n4c(=O)cc(C(F)(F)F)n(C)c4=O)cc23)cc1` [Example 397, 1,2-Benzisothiazole-3-acetic acid, 5-[3,6-dihydro-3-methyl-2,6-dioxo-4-(trifluoromethyl)-1(2H)-pyrimidinyl]-alpha,alpha-dimethyl-, p-methoxybenzyl ester], the “herbicidal effect rating, CYPSE” value in assay [1] (Rate 0.0320 kg/ha), in assay [1] (Rate 0.1250 kg/ha) and in assay [1] (Rate 0.2500 kg/ha) was 0.0 in each case. In addition, the “herbicidal effect rating, CYPIR” value was determined as 6.0 in the assay on Cyperus iria (Rate 0.0320 kg/ha), 7.0 in the assay on Cyperus iria (Rate 0.0620 kg/ha), 9.0 in the assay with Cyperus iria (Rate 0.1250 kg/ha) and 9.0 in the assay on Cyperus iria (Rate 0.2500 kg/ha). For the same compound, the “herbicidal effect rating, ECHORC” value in assay [2] (Rate 0.0320 kg/ha), in assay [2] (Rate 0.0620 kg/ha), in assay [2] (Rate 0.1250 kg/ha) and in assay [2] (Rate 0.2500 kg/ha) was 9.0 in each case. Moreover, the “herbicidal effect rating, MOOVA” value in assay [3] (Rate 0.0320 kg/ha), in assay [3] (Rate 0.0620 kg/ha), in assay [3] (Rate 0.1250 kg/ha) and in assay [3] (Rate 0.2500 kg/ha) was 9.0 in each case. The “herbicidal effect rating, SAGPY” value amounted to 4.0 in the assay on Sagittaria pygmaea, L. (Rate 0.0320 kg/ha); 5.0 in the assay with Sagittaria pygmaea, L. (Rate 0.0620 kg/ha); 5.0 with Sagittaria pygmaea, L. (Rate 0.1250 kg/ha); 5.0 in the assay with Sagittaria pygmaea, L. (Rate 0.2500 kg/ha).
Regarding `CN(O)C(=O)c1nsc2ccc(-n3c(=O)cc(C(F)(F)F)n(C)c3=O)cc12` [Example 398, 1,2-Benzisothiazole-3-carbohydroxamic acid, 5-[3,6-dihydro-3-methyl-2,6-dioxo-4-(trifluoromethyl)-1(2H)-pyrimidinyl]-N-methyl-], the “herbicidal effect rating, CYPSE” value worked out at 0.0 in assay [1] (Rate 0.0320 kg/ha), 0.0 in assay [1] (Rate 0.0620 kg/ha), 3.0 in assay [1] (Rate 0.1250 kg/ha) and 3.0 in assay [1] (Rate 0.2500 kg/ha). Moreover, the “herbicidal effect rating, CYPIR” value stood at 0.0 with Cyperus iria (Rate 0.0320 kg/ha), 3.0 in the assay on Cyperus iria (Rate 0.0620 kg/ha), 6.0 in the assay with Cyperus iria (Rate 0.1250 kg/ha) and 8.0 with Cyperus iria (Rate 0.2500 kg/ha). For the same compound, the “herbicidal effect rating, ECHORC” value worked out at 0.0 in assay [2] (Rate 0.0320 kg/ha), 2.0 in assay [2] (Rate 0.0620 kg/ha), 3.0 in assay [2] (Rate 0.1250 kg/ha) and 8.0 in assay [2] (Rate 0.2500 kg/ha). Further, the “herbicidal effect rating, MOOVA” value came out at 6.0 in assay [3] (Rate 0.0320 kg/ha), 9.0 in assay [3] (Rate 0.0620 kg/ha), 9.0 in assay [3] (Rate 0.1250 kg/ha) and 9.0 in assay [3] (Rate 0.2500 kg/ha). Moreover, the “herbicidal effect rating, SAGPY” value in the assay with Sagittaria pygmaea, L. (Rate 0.0320 kg/ha) was 0.0; with Sagittaria pygmaea, L. (Rate 0.0620 kg/ha) it was 0.0; in the assay with Sagittaria pygmaea, L. (Rate 0.1250 kg/ha), 0.0; with Sagittaria pygmaea, L. (Rate 0.2500 kg/ha) it was 3.0.
As to `C=CCONC(=O)c1nsc2ccc(-n3c(=O)cc(C(F)(F)F)n(C)c3=O)cc12` [Example 399, 1,2-Benzisothiazole-3-carboxamide, N-(allyloxy)-5-[3,6-dihydro-3-methyl-2,6-dioxo-4-(trifluoromethyl)-1(2H)-pyrimidinyl]-], the “herbicidal effect rating, CYPSE” value in assay [1] (Rate 0.0320 kg/ha), in assay [1] (Rate 0.0620 kg/ha), in assay [1] (Rate 0.1250 kg/ha) and in assay [1] (Rate 0.2500 kg/ha) was 0.0 each time. The “herbicidal effect rating, CYPIR” value was 0.0 in the assay with Cyperus iria (Rate 0.0320 kg/ha), 2.0 in the assay with Cyperus iria (Rate 0.0620 kg/ha), 7.0 in the assay on Cyperus iria (Rate 0.1250 kg/ha) and 8.0 in the assay on Cyperus iria (Rate 0.2500 kg/ha). The “herbicidal effect rating, ECHORC” value in assay [2] (Rate 0.0320 kg/ha) turned out to be 0.0; in assay [2] (Rate 0.0620 kg/ha), 0.0; in assay [2] (Rate 0.1250 kg/ha) it was 2.0; in assay [2] (Rate 0.2500 kg/ha), 3.0. Moreover, the “herbicidal effect rating, MOOVA” value in assay [3] (Rate 0.0320 kg/ha) stood at 6.0; in assay [3] (Rate 0.0620 kg/ha) it was 7.0; in assay [3] (Rate 0.1250 kg/ha) it was 8.0; in assay [3] (Rate 0.2500 kg/ha) it was 9.0. Besides, the “herbicidal effect rating, SAGPY” value is 0.0 in the assay with Sagittaria pygmaea, L. (Rate 0.0320 kg/ha); 0.0 in the assay on Sagittaria pygmaea, L. (Rate 0.0620 kg/ha); 0.0 with Sagittaria pygmaea, L. (Rate 0.1250 kg/ha); 0.0 in the assay with Sagittaria pygmaea, L. (Rate 0.2500 kg/ha).
As to `Cn1c(C(F)(F)F)cc(=O)n(-c2ccc3snc(C(=O)NOCc4ccccc4)c3c2)c1=O` [Example 400, 1,2-Benzisothiazole-3-carboxamide, N-(benzyloxy)-5-[3,6-dihydro-3-methyl-2,6-dioxo-4-(trifluoromethyl)-1(2H)-pyrimidinyl]-], the “herbicidal effect rating, CYPSE” value in assay [1] (Rate 0.0320 kg/ha), in assay [1] (Rate 0.0620 kg/ha), in assay [1] (Rate 0.1250 kg/ha) and in assay [1] (Rate 0.2500 kg/ha) was 0.0 in each case. For the same compound, the “herbicidal effect rating, CYPIR” value in the assay on Cyperus iria (Rate 0.0320 kg/ha) came out at 3.0; in the assay on Cyperus iria (Rate 0.0620 kg/ha), 3.0; in the assay with Cyperus iria (Rate 0.1250 kg/ha) it was 9.0; in the assay on Cyperus iria (Rate 0.2500 kg/ha), 9.0. The “herbicidal effect rating, ECHORC” value in assay [2] (Rate 0.0320 kg/ha), in assay [2] (Rate 0.0620 kg/ha), in assay [2] (Rate 0.1250 kg/ha) and in assay [2] (Rate 0.2500 kg/ha) was 0.0 each time. The “herbicidal effect rating, MOOVA” value is 6.0 in assay [3] (Rate 0.0320 kg/ha), 7.0 in assay [3] (Rate 0.0620 kg/ha), 7.0 in assay [3] (Rate 0.1250 kg/ha) and 9.0 in assay [3] (Rate 0.2500 kg/ha). Also, the “herbicidal effect rating, SAGPY” value was 0.0 with Sagittaria pygmaea, L. (Rate 0.0320 kg/ha); 0.0 in the assay on Sagittaria pygmaea, L. (Rate 0.0620 kg/ha); 0.0 in the assay on Sagittaria pygmaea, L. (Rate 0.1250 kg/ha); 0.0 in the assay on Sagittaria pygmaea, L. (Rate 0.2500 kg/ha).
